{"source": "patent US9248111B2", "about": "“Therapeutic approaches for treating parkinson's disease” (PHARNEXT, priority 2011, dated 2016)", "format_in_all_cases": "cell-based, rat", "key": {"[1]": {"system": "neuronal cortical cells", "assay": "Glutamate toxicity assay, neurite network (neurofilament immunostaining) of primary cortical neurons", "settings": "alone or combined", "experimental": "Glutamate toxicity is involved in the pathogenesis of Parkinson's disease. In this set of experiment, candidate compounds have been tested for their ability to prevent or reduce the toxic effects of glutamate toxicity on neuronal cells. The drugs are first tested individually, followed by assays of their combinatorial action.\nThe efficacy of drug combinations of the invention is assessed on primary cortical neuron cells.\nRat cortical neurons were cultured as described by Singer et al.. Briefly pregnant female rats of 15 days gestation were killed by cervical dislocation (Rats Wistar) and the foetuses were removed from the uterus. The cortex was removed and placed in ice-cold medium of Leibovitz (L15) containing 2% of Penicillin 10.000 U/ml and Streptomycin 10 mg/ml and 1% of bovine serum albumin (BSA). Cortices were dissociated by trypsin for 20 min at 37° C. (0.05%). The reaction was stopped by the addition of Dulbecco's modified Eagle's medium (DMEM) containing DNaseI grade II and 10% of foetal calf serum (FCS). Cells were then mechanically dissociated by 3 serial passages through a 10 ml pipette and centrifuged at 515 g for 10 min at +4° C. The supernatant was discarded and the pellet of cells was re-suspended in a defined culture medium consisting of Neurobasal supplemented with B27 (2%), L-glutamine (0.2 mM), 2% of PS solution and 10 ng/ml of BDNF. Viable cells were counted in a Neubauer cytometer using the trypan blue exclusion test. The cells were seeded at a density of 30 000 cells/well in 96 well-plates (wells were pre-coated with poly-L-lysine (10 μg/ml)) and were cultured at +37° C. in a humidified air (95%)/CO2 (5%) atmosphere.\nAfter 12 days of neuron culture, drugs of the candidate combinations are solved in culture medium (+0.1% DMSO). Candidate combinations are then pre-incubated with neurons for 1 hour before the glutamate injury. One hour after incubation with, glutamate is added for 20 min, to a final concentration of 40 μM, in presence of candidate combinations, in order to avoid further drug dilutions. At the end of the incubation, medium is changed with medium with candidate combination but without glutamate. The culture is fixed 24 hours after glutamate injury. MK801 (dizocilpinehydrogen maleate, 77086-22-7-20 μM) is used as a positive control.\nAfter permeabilization with saponin (Sigma), cells are blocked for 2 h with PBS containing 10% goat serum, then the cells are incubated with mouse monoclonal primary antibody against Neurofilament antibody (NF, Sigma).\nNuclei of cells are labeled by a fluorescent marker (Hoechst solution, SIGMA), and neurite network quantified. Six wells per condition are used to assess neuronal survival in 3 different cultures."}, "[2]": {"system": "dopaminergic neuronal cells", "assay": "6-OHDA injury on mesencephalic dopaminergic neurons, number of TH positive neurons", "experimental": "6-hydroxydopamine (6-OHDA) is a neurotoxic drug which selectively initiates neuronal degeneration of dopaminergic neurons by generating reactive oxygen species and mitochondrial respiratory dysfunction which are thought to mirror events occurring in Parkinsonian brain. 6-OHDA toxicity is commonly used in vitro and in vivo to study Parkinsonism.\nRat dopaminergic neurons were cultured as described by Schinelli et al.. Pregnant female rats of 15 days gestation were killed by cervical dislocation (Rats Wistar; Janvier) and the foetuses removed from the uterus. The embryonic midbrains were removed and placed in ice-cold medium of Leibovitz (L15; PanBiotech) containing 2% of Penicillin-Streptomycin (PS; PanBiotech) and 1% of bovine serum albumin (BSA; PanBiotech). Only the ventral portions of the mesencephalic flexure were used for the cell preparations as this is the region of the developing brain rich in dopaminergic neurons. The midbrains were dissociated by trypsinisation for 20 min at 37° C. (Trypsin EDTA 1×; PanBiotech). The reaction is stopped by the addition of Dulbecco's modified Eagle's medium (DMEM; PanBiotech) containing DNAase I grade II (0.1 mg/ml; PanBiotech) and 10% of foetal calf serum (FCS; Invitrogen). Cells were then mechanically dissociated by 3 passages through a 10 ml pipette and centrifuged at 180×g for 10 min at +4° C. on a layer of BSA (3.5%) in L15 medium. The supernatant was discarded and the cells of pellet were re-suspended in a defined culture medium consisting of Neurobasal (Invitrogen) supplemented with B27 (2%; Invitrogen), L-glutamine (2 mM; PanBiotech) and 2% of PS solution and 10 ng/ml of Brain-derived neurotrophic factor (BDNF, PanBiotech) and 1 ng/ml of Glial-Derived Neurotrophic Factor (GDNF, PanBiotech). Viable cells were counted in a Neubauer cytometer using the trypan blue exclusion test. The cells were seeded at a density of 40 000 cells/well in 96 well-plates (pre-coated with poly-L-lysine (Greiner)) and are cultured at 37° C. in a humidified air (95%)/CO2 (5%) atmosphere. Half of the medium was changed every 2 days with fresh medium. Five to six percent of the neuronal cell population were dopaminergic neurons.\nOn day 6 of culture, the medium was removed and fresh medium was added, without or with 6-OHDA at the following concentrations: 20 μM during 48 hours diluted in control medium. Test compounds were pre-incubated for 1 h before the 6-OHDA application during 48 hours.\nAfter 48 hours of intoxication with 6-OHDA, cells were fixed by a solution of 4% paraformaldehyde (Sigma) in PBS, pH=7.3 for 20 min at room temperature. The cells were washed again twice in PBS, and then permeabilized and non-specific sites were blocked with a solution of PBS containing 0.1% of saponin (Sigma) and 1% FCS for 15 min at room temperature. Then, cells were incubated with Monoclonal Anti-Tyrosine Hydroxylase antibody produced in mouse (TH, Sigma) at dilution of 1/1000 in PBS containing 1% FCS, 0.1% saponin, for 2 hours at room temperature.\nFor each condition, 2×10 pictures (representing ˜80% of total well area) per well were taken using InCell Analyzer™ 1000 (GE Healthcare) with 10× magnification. All images were taken in the same conditions. […]\nData are expressed in percentage of control conditions (no intoxication, no 6-OHDA=100%) in order to express the 6-OHDA injury. All values are expressed as mean+/−SEM (s.e. mean) of the 3 cultures (n=6 wells per condition per culture). […]"}, "[3]": {"system": "cortical neuronal cells", "assay": "Oxygen and glucose deprivation assay (in vitro model of ischemia), neurite network by MAP2", "settings": "alone or combined", "experimental": "B—Protective Effect Against Ischemia/Hypoxia Induced Neuronal Cell Death Rat Neuronal Cortical Cells Preparation\nCells are prepared as previously.\nThe neuroprotective effect of compounds is assessed by quantification of the neurite network using MAP2 antibody. Riluzole, a neuroprotective drug, (Riluteck®, 5 μM) is used as positive control.\nAfter 10 days of neuron culture, candidate drugs are solved in culture medium (+0.1% DMSO) and then pre-incubated with neurons for 1 hour before the oxygen and glucose deprivation. One hour after candidate drug incubation, the medium is removed and fresh medium without glucose is added. This medium is composed by DMEM without glucose (Invitrogen) supplemented with 2% B27, 0.2 mM L-glutamine, 1% PS solution, 10 ng/ml of BDNF. The cells are transferred into an anaerobic incubator with 95% N2 and 5% CO2 at 37° C.\nAfter 2 hours, 25 mM of D-Glucose will be added in culture medium and cells are transferred in classic incubator with 95% air/5% CO2 at 37° C. After 24 hours of oxygen glucose reperfusion, cells are fixed by a cold solution of alcohol/acetic acid during 5 minutes.\nAfter permeabilization with saponin (Sigma), cells are blocked for 2 hours with PBS containing 10% goat serum, then the cells are incubated with mouse monoclonal primary antibody against MAP2 (MAP2, Sigma).\nNuclei of cells are labelled by a fluorescent marker (Hoechst solution, SIGMA). Six wells per condition are used to assess neuronal survival in 3 different cultures.\nFor each condition 2×10 pictures per well are taken and analyzed using InCell Analyzer TM 1000 (GE Healthcare) with 20× magnification."}, "[4]": {"settings": "FIG. 3: baclofen 400 nM, acamprosate 1.6 nM"}, "[5]": {"settings": "FIG. 12A: baclofen 32 nM alone, acamprosate 10 pM alone"}, "[6]": {"settings": "FIG. 12B: baclofen 32 nM alone, acamprosate 4 pM alone"}, "[7]": {"settings": "FIG. 4: baclofen 80 nM, acamprosate 0.32 nM"}, "[8]": {"settings": "FIG. 2: sulfisoxazole 6.8 nM, torasemide 400 nM"}, "[9]": {"settings": "FIG. 5: sulfisoxazole 1.36 nM, torasemide 80 nM"}, "[10]": {"settings": "FIG. 1: cinacalcet 64 pM, mexiletine 25.6 pM"}, "[11]": {"settings": "FIG. 6: cinacalcet 64 pM, mexiletine 25.6 pM"}}, "data": [{"molecule": "NCC(CC(=O)O)c1ccc(Cl)cc1", "note": "(centres unmarked) [baclofen]", "values": [{"measurement": "prevention of glutamate intoxication", "setting": "[1]; [4]", "result": "no significant effect"}, {"measurement": "protection from 6-OHDA injury, single drugs", "setting": "[2]; [5]", "result": "low effect"}, {"measurement": "protection from 6-OHDA injury, single drugs", "setting": "[2]; [6]", "result": "low effect"}, {"measurement": "protection against ischemic injury", "setting": "[3]; [7]", "result": "no significant protection"}]}, {"molecule": "Cc1cccc(Nc2ccncc2S(=O)(=O)NC(=O)NC(C)C)c1", "note": "[torasemide]", "values": [{"measurement": "prevention of glutamate intoxication", "setting": "[1]; [8]", "result": "no significant effect"}, {"measurement": "protection against ischemic injury", "setting": "[3]; [9]", "result": "no significant protection"}]}, {"molecule": "CC(=O)NCCCS(=O)(=O)O", "note": "[acamprosate]", "values": [{"measurement": "prevention of glutamate intoxication", "setting": "[1]; [4]", "result": "no significant effect"}, {"measurement": "protection from 6-OHDA injury, single drugs", "setting": "[2]; [5]", "result": "low effect"}, {"measurement": "protection from 6-OHDA injury, single drugs", "setting": "[2]; [6]", "result": "low effect"}, {"measurement": "protection against ischemic injury", "setting": "[3]; [7]", "result": "no significant protection"}]}, {"molecule": "Cc1noc(NS(=O)(=O)c2ccc(N)cc2)c1C", "note": "[sulfisoxazole]", "values": [{"measurement": "prevention of glutamate intoxication", "setting": "[1]; [8]", "result": "no significant effect"}, {"measurement": "protection against ischemic injury", "setting": "[3]; [9]", "result": "no significant protection"}]}, {"molecule": "C[C@@H](NCCCc1cccc(C(F)(F)F)c1)c1cccc2ccccc12", "note": "[cinacalcet]", "values": [{"measurement": "prevention of glutamate intoxication", "setting": "[1]; [10]", "result": "no significant effect"}, {"measurement": "protection against ischemic injury", "setting": "[3]; [11]", "result": "No significant protection"}]}, {"molecule": "Cc1cccc(C)c1OCC(C)N", "note": "(centres unmarked) [mexiletine]", "values": [{"measurement": "prevention of glutamate intoxication", "setting": "[1]; [10]", "result": "no significant effect"}, {"measurement": "protection against ischemic injury", "setting": "[3]; [11]", "result": "No significant protection"}]}, {"molecule": "BDNF: Brain-derived neurotrophic factor, used as a positive control (protein, UniProt P23560 129-247, looked up, Neurotrophic factor BDNF, Brain-derived neurotrophic factor, used as a positive control) Neurotrophic factor BDNF: HSDPARRGELSVCDSISEWVTAADKKTAVDMSGGTVTVLEKVPVSKGQLKQYFYETKCNPMGYTKEGCRGIDKRHWNSQCRTTQSYVRALTMDSKKRIGWRFIRIDTSCVCTLTIKRGR", "values": [{"measurement": "protection of dopaminergic neurons from 6-OHDA injury", "setting": "[2]; 1.85 nM, one hour pre-treatment, positive control", "result": "significantly protected"}]}]}
